In patent publication US10947196B2, “Beta adrenergic agonist and methods of using the same” (CURASEN THERAPEUTICS, INC., priority 2019, dated 2021):
Read-outs that look alike come from different tables or passages of the source.

Key:
[1] = Rat CNS exposure measurement (plasma, CSF, brain); assay type: in vivo, male SD rats; details: male, SD
[2] = Hepatocyte stability (dog); assay type: in vitro ADME; details: 0.5×10^6 viable cells/mL
Procedure: (§1) 10 mM and 100 μM stock solutions of test compound(s) and a positive control were prepared in appropriate solvent (DMSO). In separate conical tubes, the 10 mM test compound and the positive control were diluted to 100 μM by combining 198 μL of 50% acetonitrile/50% water and 2 μL of 10 mM stock. The 100 μM test compound and the positive control were diluted to 30 μM by combining 140 μL of 50% acetonitrile/50% water and 60 μL of 100 μM stock solution. The 100 μM test compound and the positive control were diluted to 10 μM by combining 180 μL of 50% acetonitrile/50% water and 20 μL of 100 μM stock solution. The 100 μM test compound and the positive control were diluted to 3 μM by combining 194 μL of 50% acetonitrile/50% water and 6 μL of 100 μM stock solution.
(§2) Incubation medium (William's E Medium supplemented with GlutaMAX) and hepatocyte thawing medium was placed in a 37° C. water bath, and allowed to warm for at least 15 minutes prior to use. A vial of cryopreserved hepatocytes from storage was then removed, ensuring that the vial remains at cryogenic temperatures until thawing process ensues. Cells were thawed by placing the vial in a 37° C. water bath and gently shaking the vial for 2 minutes. After thawing was completed, the vial was sprayed with 70% ethanol and transferred to a biosafety cabinet.
(§3) A wide-bore pipette tip was used to transfer hepatocytes into 50 mL conical tube containing thawing medium. The 50 mL conical tube was placed into a centrifuge and spun at 100 g for 10 minutes. Upon completion of spin, the thawing medium was aspirated and the hepatocytes were resuspended in enough incubation medium to yield ˜1.5×10^6 cells/mL.
(§4) Using AOPI staining solution, cells were counted and the viable cell density was determined. Cells with poor viability (<75% viability) are not acceptable for use. […]
(§5) All calculations were carried out using Microsoft Excel. Peak areas were determined from extracted ion chromatograms. […]
(§6) The in vitro half-life (in vitro t1/2) was determined from the slope value: in vitro t1/2=0.693/k

[3] = Hepatocyte stability (rat); assay type: in vitro ADME; details: 0.5×10^6 viable cells/mL
Procedure: as §1, §2, §3, §4, §5, §6

CC(C)(C)NC[C@H](O)c1cccc(C(F)(F)F)n1 [Compound 03-3]
concentration at 1 h ([1]; CSF, iv, 1 mg/kg, IV 1 mg/kg, read-out: Concentration, CSF): 142 ng/mL | concentration at 1 h ([1]; brain, iv, 1 mg/kg, IV 1 mg/kg, read-out: Concentration, Brain): 680 ng/g | concentration at 1 h ([1]; plasma, iv, 1 mg/kg, IV 1 mg/kg, read-out: Concentration, Plasma): 199 ng/mL | Hepatocyte stability, Dog [2]: 5.3 μL/min/10^6 cells | Hepatocyte stability, Rat [3]: 4.59 μL/min/10^6 cells

Cc1ncccc1[C@@H](O)CNC(C)(C)C [Compound 03-115]
concentration at 1 h ([1]; in vivo, SC 1 mg/kg, read-out: Concentration, Plasma): 149 ng/mL | concentration at 1 h ([1]; in vivo, sc, 1 mg/kg, SC 1 mg/kg, read-out: Concentration, Brain): 142 ng/g | concentration at 1 h ([1]; in vivo, sc, 1 mg/kg, SC 1 mg/kg, read-out: Concentration, CSF): 56.2 ng/mL | Hepatocyte stability, Dog [2]: 8.13 μL/min/10^6 cells | Hepatocyte stability, Rat [3]: 20.61 μL/min/10^6 cells

CC(C)(C)NC[C@H](O)c1cccc(C#N)n1 [Compound 03-5, (S)-6-(2-(tert-butylamino)-1-hydroxyethyl)picolinonitrile]
concentration at 1 h ([1]; CSF, IV 1 mg/kg, read-out: Concentration, CSF): 113 ng/mL | concentration at 1 h ([1]; CSF, PO 5 mg/kg, read-out: Concentration, CSF): 242 ng/mL | concentration at 1 h ([1]; brain, IV 1 mg/kg, read-out: Concentration, Brain): 267 ng/g | concentration at 1 h ([1]; brain, PO 5 mg/kg, read-out: Concentration, Brain): 497 ng/g | concentration at 1 h ([1]; plasma, IV 1 mg/kg, read-out: Concentration, Plasma): 184 ng/mL | concentration at 1 h ([1]; plasma, PO 5 mg/kg, read-out: Concentration, Plasma): 642 ng/mL | Hepatocyte stability, Dog [2]: 5.94-7.63 μL/min/10^6 cells | Hepatocyte stability, Rat [3]: 3.54-4.62 μL/min/10^6 cells
